Broadly, the IC50 is the concentration at which inhibition is half-maximal. As a reminder, the fraction unbound is the share of the substance not bound to proteins or other matrix. Usually clearance stands for the volume of plasma or blood freed of the substance per unit of time. A lower clearance goes with a low capacity for elimination. The term Tmax denotes the time at which the peak concentration occurs.

The source of these data is patent US12577247B2 (BUGWORKS RESEARCH, INC., priority 2021, dated 2026).

One series deals with T1, A2A receptor (Homo sapiens, UniProt P29274).
T1 construct: host or cells: HEK-293
T1 sequence (P29274 whole entry): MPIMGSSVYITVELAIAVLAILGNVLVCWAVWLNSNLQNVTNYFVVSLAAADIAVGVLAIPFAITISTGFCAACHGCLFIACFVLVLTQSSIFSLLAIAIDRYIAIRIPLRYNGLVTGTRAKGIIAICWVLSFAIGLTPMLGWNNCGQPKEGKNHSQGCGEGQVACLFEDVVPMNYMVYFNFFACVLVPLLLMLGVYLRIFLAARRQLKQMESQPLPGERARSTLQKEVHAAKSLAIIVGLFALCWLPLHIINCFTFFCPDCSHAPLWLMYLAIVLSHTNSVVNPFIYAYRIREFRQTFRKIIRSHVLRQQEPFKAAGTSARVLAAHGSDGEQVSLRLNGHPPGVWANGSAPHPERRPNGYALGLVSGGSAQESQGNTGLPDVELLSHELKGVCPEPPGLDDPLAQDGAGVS
In words: A2aR antagonism IC50, cAMP TR-FRET (Lance Ultra) in HEK-293 cells, NECA as agonist.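 Also: compounds tested from 10 µM down to 0.08 nM in buffer with Rolipram at room temperature, TR-FRET cAMP signal read 1 h after adding Eu-cAMP tracer and ULight anti-cAMP.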 Format: cell-based. As to conditions: A2AR IC50 (nM) (@5 nM NECA), HEK-293 cells expressing A2A receptor; agonist NECA 5 nM (EC90); inhibition of cAMP.

Series [1] in a line: Plasma protein binding, equilibrium dialysis, mouse. Format: in vitro ADME. Particulars: plasma (10% plasma, extrapolated to 100% plasma), CD-1 plasma, 18 hours at 37° C. The method, then:
Protein binding is measured using the equilibrium dialysis technique. Compound is added to 10% plasma giving a concentration of 10 μM and dialysed with isotonic buffer for 18 hours at 37° C. The plasma and buffer solutions are analysed using generic LC UV/MS and the first apparent binding constant for the compound derived. The binding constant is then used to determine the % free in 100% plasma
The percentage of plasma bound/unbound fraction preparation was calculated as follows
[formula] [formula] where, • Tc=Total plasma concentration was determined by the calculated concentration on the plasma side of the chamber • Fc=[…] was determined by the calculated concentration on the buffer side of the chamber • To=Total compound concentration determined before analysis.

Another series concerns the target T2, A2B receptor (Homo sapiens, UniProt P29275).
T2 sequence (P29275 1-332): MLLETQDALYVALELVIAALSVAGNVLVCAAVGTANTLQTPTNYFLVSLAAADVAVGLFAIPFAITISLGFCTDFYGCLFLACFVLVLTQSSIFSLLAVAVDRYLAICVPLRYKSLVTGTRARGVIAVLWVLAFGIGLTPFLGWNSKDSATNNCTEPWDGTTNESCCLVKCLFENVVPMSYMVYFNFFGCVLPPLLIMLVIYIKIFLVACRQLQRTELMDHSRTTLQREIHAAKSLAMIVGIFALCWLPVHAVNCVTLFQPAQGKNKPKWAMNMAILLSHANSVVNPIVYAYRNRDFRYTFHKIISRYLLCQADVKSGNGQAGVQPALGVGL
Put plainly: A2bR antagonism IC50, cAMP TR-FRET (Lance Ultra) in HEK-293 cells, NECA as agonist. Also on record: host or cells: HEK-293. Particulars: HEK-293 cells expressing A2B receptor; agonist NECA 30 nM (EC90); inhibition of cAMP. Format: cell-based. (Time-resolved FRET reads energy transfer from a long-lived donor to a nearby acceptor.)

The nature of series [2]: Pharmacokinetic study in dogs. Format: in vivo, male Beagle dogs. Particulars: for half-life: dog; for Vd: read-out: Vss; for Cmax / Tmax: po, p.o; for Cmax: read-out: Cmax (head Co*/); for Tmax: read-out: Tmax (head Tma). The method, then:
(§1) Intravenous (i.v) and Oral formulations for pharmacokinetic (PK) studies was formulated in different vehicles and excipients to achieve the desirable solubility for intravenous and Oral routes of administration.
(§2) Appropriate amount of the test compound was weighed and dissolved in required volume of the vehicles, followed by vertexing for a few seconds to dissolve the compound. Then the solution (or) suspension was sonicated at room temperature for 5 minutes to obtain a visually clear solution and or homogenous suspension. All the formulations were prepared freshly at room temperature before dosing.
The dog PK study was carried out in male Beagle dogs of minimum 10 Kg body weight to estimate the plasma clearance, volume of distribution and terminal half-life, area under curve (AUC) and peak plasma concentration (Cmax), time of peak plasma concentration (Tmax) and absolute bioavailability (% F) following intravenous and oral routes of administration.
Briefly, Example 13 and Example 39 was administered to a group of 3 non-naïve male dogs. The first set of 3 animals received an intravenous administration and following a washout period of 7 days, received an oral administration of Example 13. Following a further 7-day washout the animals will then repeat the intravenous and oral dosing regimen with an administration of Example 39. Blood samples (1 mL) was collected from the jugular vein by venepuncture into tubes containing K2EDTA anticoagulant at the following sampling times: • IV: Predose, 0.083 (5 min), 0.25, 0.5, 1, 2, 4, 8 and 24 hrs post-dose. • PO: Predose, 0.25, 0.5, 1, 2, 4, 8 and 24 hrs post-dose.
Immediately following collection blood samples was inverted to ensure mixing with anticoagulant and placed on wet ice. As soon as practically possible samples were centrifuged (3000 rpm, 10 min, at 4° C.) and the resultant plasma decanted into appropriately labelled polypropylene tubes in 96-well plate format and stored in a freezer set to maintain a temperature of ≤−65° C., until analysis.
(§3) Plasma samples were analysed for a fit-for purpose LC-MS/MS method with a lower limit of quantification. The pharmacokinetic parameters were calculated using the non-compartmental analysis tool of validated Phoenix® WinNonlin® software (Certara, USA version 8.4) with linear up and log down method for estimating AUC.
(§4) All animals in intravenous (IV bolus) group were under fed state and animals in oral groups were fasted overnight (min 12 hr) before dose administration and food was provided 4 h post dose administration. All animals were received water ad libitum during the study period. The mean (±SD) pharmacokinetic parameters of Example 13, Example 122b & Example 39 following IV bolus and Oral dose administration in Mice/Rat and Dog is provided in Table-9.

Series [3] can be described thus: Pharmacokinetic study in rats. Format: in vivo, male Sprague-Dawley (SD) rats. Particulars: for Vd / clearance / half-life / Cmax / Tmax / bioavailability: male, Sprague-Dawley, plasma; for Vd: read-out: Vss; for Cmax / Tmax: po, p.o; for Cmax: read-out: Cmax (head Co*/); for Tmax: read-out: Tmax (head Tma); for bioavailability: rat, oral. The method, then: as §1, §2
The rodent pharmacokinetic studies were carried out in male Sprague-Dawley (SD) rats (8-12 weeks of age, weighing 280±20 g at the time of dosing) and CD1 mice (8-12 weeks of age, weighing 30-35 g body weight at the time of dosing) to estimate the plasma clearance, volume of distribution and terminal half-life, area under curve (AUC) and peak plasma concentration (Cmax) and time of peak plasma concentration (Tmax) following intravenous and oral routes of administration. The detailed experimental design is described in the Table 8 below.
Rats were anaesthetized by Isoflurane anaesthesia. The jugular and femoral veins of rat were cannulated, and the study was performed 48 h post cannulation. At each time point about 100 μL, of rat blood was collected from the jugular vein into a labelled microfuge tube containing 200 mM K2EDTA solution (20 μL, per mL of blood) and equivalent volume of heparinized saline was replaced following sample collection. Similarly, 25 μL, of mice blood was collected from the saphenous vein into a labelled microfuge tube containing 200 mM K2EDTA solution
Serial blood sampling method was used for blood collection. Blood samples were collected at pre-dose, 0.25 h, 0.5, 1, 2, 4, 6, 8 and 24-hours post dose. The blood samples were processed to obtain the plasma samples within 30 min of scheduled sampling time. All plasma samples were stored −70° C. until bioanalysis.
as §3, §4

Where [4] appears, read: male, Beagle, plasma, iv, Dog, i.v, 3 mg/kg.
Setting [5] is: male, Beagle, plasma, Dog, 10 mg/kg.
The mark [6] stands for this setting: male, Beagle, plasma, 30 mg/kg, line stands under Dog.
Setting [7] is: Rat, IV bolus, Table 6, read-out: T1/2 (IV bolus) (converted).

Text for A2A receptor: (§5) Adenosine A2A receptors and Adenosine A2B receptors induce the production of cAMP when activated/stimulated by an agonist like adenosine or 5′-(N-Ethylcarboxamido) adenosine (NECA). A Time-Resolved Fluorescence Energy Transfer (TR-FRET) assay was used to show the inhibition of this cAMP production in HEK cells upon treatment with compounds of the Formula I of the present disclosure.
(§6) HEK-293 cells expressing A2A receptor (#ES-011-C) or A2B receptor (#ES 013-C) were obtained from PerkinElmer. Cells were maintained in DMEM medium supplemented with 10% FBS and 200 μg/mL of G418 at 37° C. and 5% CO2. The cells were cultured in antibiotic free medium for a period of 16-20 hours prior to the assay. All subsequent steps of the assay are performed at room temperature (22-24° C.). The cells were harvested at about 80% confluency by gentle flushing with PBS, recovered by centrifugation and resuspended in stimulation buffer at the concentration of 5.0×10^6 cells/mL.
(§7) The assays were conducted in a stimulation buffer containing 1×DMEM, 5 mM HEPES, 0.1% BSA stabilizer and 20-30 μM Rolipram. Serial dilutions of compounds were made in stimulation buffer to achieve a final concentration of high micromolar (10 μM to 0.08 nM) in the reaction volume of 10 μL. The total reaction volume was 10 μL (5 μL of cells, 2.5 μL of antagonist and 2.5 μL of agonist). The stimulation was ended, and the reaction completed by adding 5 μL of 4× Eu-cAMP tracer working solution and 5 μL of 4× ULight-anti-cAMP working solution. The TR-FRET signal was measured after 1-hour incubation using a Tecan M1000 reader.
Text for A2B receptor: as §5, §6, §7

For `CCc1c(C)nn2c(N)c(C#N)c(NCCc3ccn(C4(CO)CC4)n3)nc12` [Example 39, 7-amino-3-ethyl-5-((2-(1-(1-(hydroxymethyl)cyclopropyl)-1H-pyrazol-3-yl)ethyl)amino)-2-methylpyrazolo[1,5-a] pyrimidine-6-carbonitrile], the IC50 was 0.23 nM at A2A receptor and 0.94 nM on A2B receptor. In addition, the unbound share (fraction unbound) at 18 h, 10 µM in series [1] is 0.125. Further, the “Total systemic clearance relative to hepatic clearance” value in series [2] (Dog) worked out at 1.7 ×. Moreover, in series [2] (Dog), the “Volume of distribution relative to total body water (TBW)” value worked out at 3.3 × TBW. Also, the “Total CLsystemic in plasma” value in series [2] (Dog, Table 6) was found to be 52 mL/min/kg; in series [3] (Rat, Table 6), 90 mL/min/kg. For the same molecule, the “Co (head Co*/)” value in series [2] (Dog, i.v, 3 mg/kg) was found to be 1352 ng/m; in series [3] (Rat, i.v, 15 mg/kg), 8676 ng/m. Further, the half-life in series [2] (male, Beagle, plasma, iv, 3 mg/kg, Dog, IV bolus, Table 6, read-out: T1/2 (IV bolus) (converted)) was 27 min; in series [2] (male, Beagle, plasma, iv, 3 mg/kg, Dog, i.v, 3 mg/kg, read-out: t1/2 (converted)) it was 24 min; in series [3] (iv, Rat, i.v, 15 mg/kg, read-out: t1/2 (converted)) it was 72 min; in series [3] (setting [7]), 72 min. Besides, the Vd in series [2] (male, Beagle, plasma, intravenous, Dog, Table 6) stood at 2 L/kg; in series [2] (setting [4]), 2 L/kg; in series [3] (intravenous, Rat, Table 6), 2.4 L/kg; in series [3] (iv, Rat, i.v, 15 mg/kg), 2.4 L/kg. The clearance was found to be 52 ± 8.7 mL/min/kg in series [2] (setting [4]) and 90 ± 15 mL/min/kg in series [3] (iv, Rat, i.v, 15 mg/kg). Also, the bioavailability was 25% in series [2] (male, Beagle, plasma, oral, 10 mg/kg, Dog, Table 6, read-out: % F); 25% in series [2] (male, Beagle, plasma, Dog, oral 10 mg/kg vs IV bolus 3 mg/kg, read-out: % F (bioavailability)); 27% in series [3] (Rat, Table 6, read-out: % F); 27% in series [3] (Rat, oral vs IV bolus, doses per compound, read-out: % F (bioavailability)). In addition, the Cmax in series [2] (setting [5]) is 618 ng/mL; in series [2] (setting [6]) it was 201 ng/mL; in series [3] (Rat, 100 mg/kg), 4100 ng/mL. In addition, the time of peak concentration (Tmax) is 30 min in series [2] (setting [5]); 30 min in series [2] (setting [6]); 12 min in series [3] (Rat, 100 mg/kg). The “Distribution relative to TBW” value in series [3] (rats & mice) is recorded as 2 × TBW. In series [3] (rats & mice), the “Total CL relative to hepatic clearance” value worked out at 1.6 ×.
For `CCc1c(C)nn2c(N)c(C#N)c(NCCc3ccn(C4COCC4CO)n3)nc12` (single isomer, unassigned; (-)) [Example 122b, (−)-7-amino-3-ethyl-5-((2-(1-(4-(hydroxymethyl)tetrahydrofuran-3-yl)-1H-pyrazol-3-yl)ethyl)amino)-2-methyl pyrazolo[1,5-a]pyrimidine-6-carbonitrile], in series [3] (Rat, IV bolus), the “Total plasma systemic clearance (CL) relative to hepatic blood flow” value was determined as 1.3 ×. Also, the “Total CLsystemic in plasma” value in series [3] (Rat, Table 6) is 78 mL/min/kg. Besides, in series [3] (Rat, i.v, 5 mg/kg), the “Co (head Co*/)” value came to 4169 ng/m. For the same molecule, the Vd is 1.6 L/kg in series [3] (intravenous, Rat, Table 6) and 1.58 L/kg in series [3] (iv, Rat, i.v, 5 mg/kg). The molecule also returned a clearance in series [3] (iv, Rat, i.v, 5 mg/kg) of 78 ± 17 mL/min/kg. In addition, the half-life in series [3] (iv, Rat, i.v, 5 mg/kg, read-out: t1/2 (converted)) is 18 min; in series [3] (setting [7]), 19.8 min. Also, the Cmax in series [3] (Rat, 30 mg/kg) came out at 983 ng/mL. In addition, in series [3] (Rat, 30 mg/kg), the Tmax was determined as 30 min. Besides, the bioavailability in series [3] (30 mg/kg, Rat, oral vs IV bolus, doses per compound, read-out: % F (bioavailability)) is 21%; in series [3] (Rat, Table 6, read-out: % F), 21%.
